According to patent US20240002343A1, “COMPOUNDS HAVING INHIBITORY EFFECT ON MITOCHONDRIAL HYPERFISSION” (KYUSHU UNIVERSITY, NATIONAL UNIVERSITY CORPORATION, priority 2020, published 2024):

How the values were obtained:
[1] = tested on: cardiomyocytes derived from neonatal rats; assay: Inhibitory effect on mitochondrial hyperfission by hypoxic stimulation; assay type: cell-based, rat; settings: 0.3 μM, 1 hour preincubation, 18 hours hypoxic environment; compared with cilnidipine positive control
Procedure: A system for evaluating quantitatively the degree of mitochondrial division in cells was constructed. Specifically, cardiomyocytes derived from neonatal rats were cultured under either normoxia (20%) or hypoxia (1%) for 16 hours. Subsequently, the cells were stained with a fluorescent dye (MitoTracker Green FM, Thermo Fisher Scientific) that selectively stains mitochondria. Then, the mitochondria were observed under a fluorescence microscope, and the mitochondrial morphology was quantitatively measured by image analysis.
FIGS. 2(a) and (b) are each a micrograph and an image explaining a method for quantitatively measuring mitochondrial morphology by image analysis. FIG. 2(a) is a representative fluorescence micrograph showing the general morphology of mitochondria. FIG. 2(b) is an image obtained by filtering the photograph in FIG. 2(a) and extracting the shape of the mitochondria. Image analysis was performed based on the image in FIG. 2(b) to quantify the lengths of mitochondrial fragments. For the quantification, in order to classify the mitochondria into vesicle-shaped, intermediate-shaped and tube-shaped, <3.5 μm is set for vesicle-shaped, 3.6 μm<length<4.2 μm is set for intermediate-shaped, and >4.2 μm is set for tube-shaped, respectively, as thresholds.
The system for evaluation constructed in Test Example 1 was used to evaluate the mitochondrial hyperfission inhibitory effects of the compounds prepared in Examples.
Specifically, at first, each compound was added to the culture medium of cardiomyocytes derived from neonatal rats at a final concentration of 0.3 μM, and the mixture was incubated for 1 hour.
Then, each cells were cultured for an additional 18 hours in a hypoxic environment. Subsequently, mitochondria were stained with MitoTracker Green FM (Thermo Fisher Scientific) or anti-pyruvate dehydrogenase antibody (Abcam) and observed under a fluorescence microscope to quantitatively measure the morphology of mitochondria. For comparison, a group involving cilnidipine as a positive control and a group involving dimethyl sulfoxide (DMSO) as a negative control were also prepared.

calcium channel = assay: Calcium antagonism (KCl-induced calcium ion influx, Fura 2-AM); assay type: cell-based, mouse; settings: Neuro-2a cells; 0, 1, 10, 100 and 1,000 nM, 30 minutes; potassium chloride 60 mM
Procedure: The compounds prepared in Examples were evaluated for calcium channel blocking activity. Specifically, at first, Neuro-2a cells, mouse-derived neuroblastoma cell line, were cultured in a serum-free medium, and Fura 2-AM (Dojindo Laboratories) that is a calcium ion probe, was added to the medium so that it was taken up by the cells.
Subsequently, after replacing the medium with HEPES buffer (pH 7.4), each compound was each added at final concentrations of 0, 1, 10, 100 and 1,000 nM and the mixtures were incubated for 30 minutes.
Then, depolarization stimulation was applied with potassium chloride (final concentration 60 mM), and the influx of calcium ions into the cells was measured by fluorescence microscopy.
FIGS. 4(a) and (b) are graphs that illustrate the results of measurement of increase in intracellular calcium ion concentration induced by potassium chloride stimulation. Δratio on the vertical axis is expressed by formula (F1) below and represents a value that reflects the intracellular calcium ion concentration.
A ratio=(fluorescence intensity at fluorescence wavelength of 510 nm against an excitation wavelength of 340 nm)/(fluorescence intensity at fluorescence wavelength of 510 nm against an excitation wavelength of 380 nm) Formula (F1)

[2] = tested on: cardiomyocytes derived from neonatal rats; assay: Inhibitory effect on aging of cardiomyocytes under hypoxic stimulation (β-galactosidase, SPiDER-βGAL); assay type: cell-based, rat; settings: 1 μM, 1 hour preincubation, 16 hours normoxia (20%) or hypoxia (1%); compared with cilnidipine
Procedure: The compounds prepared in Examples were investigated for effects on the aging of cardiomyocytes. The aging of cardiomyocytes was evaluated by detecting β-galactosidase, one of the aging markers.
Specifically, DOJINDO's cell aging detection kit-SPiDER-βGAL was used for detection according to the attached protocol. Each compound was added to the culture medium of cardiomyocytes derived from neonatal rats at a final concentration of 1 μM and the medium were incubated for 1 hour. Then, the medium was cultured for 16 hours under normoxia (20%) or hypoxia (1%). Subsequently, Bafilomycin A1, which inhibits endogenous β-galactosidase activity, was added and the medium was incubated for 1 hour. After washing the cells with a medium, SPiDER-βGAL was added thereto and the mixture was incubated for 30 minutes. After removing the supernatant, HEPES buffer (pH 7.4) was added thereto and the cells were observed under a fluorescence microscope to detect β-galactosidase in the aging cells. For comparison, a group involving cilnidipine as a positive control and a group involving dimethylsulfoxide (DMSO) as a negative control were prepared.
Arrowheads indicate the β-galactosidase-positive cells.

Drp1-filamin complex = settings: Non-Patent Document 6; cited from earlier work

SMILES | mitochondrial hyperfission inhibitory effect (percentage of cells with vesicle-shaped mitochondria) [1] | Ca2+ antagonism (increase in intracellular calcium ion concentration induced by potassium chloride stimulation) (calcium channel) | suppressive effect on aging (β-galactosidase-positive cells) [2] | inhibition of formation of the Drp1-filamin complex (Drp1-filamin complex)
COCCOC(=O)c1c(C)nc(C)c(C(=O)O)c1-c1ccccc1[N+](=O)[O-] [Compound 6, 5-((2-methoxyethoxy)carbonyl)-2,6-dimethyl-4-(2-nitrophenyl)nicotinic acid] | the same as or more effect of cilnidipine | no Ca2+ antagonism |  | 
COCCOC(=O)c1c(C)nc(C)c(C(=O)Nc2cccc(C(=O)OC(C)(C)C)c2)c1-c1ccccc1 [Compound 24, 2-Methoxyethoxy 5-((3-(tert-butoxycarbonylcarbonyl)phenyl)carbamoyl)-2,6-dimethyl-4-phenylnicotinate] | the same as or more effect of cilnidipine |  |  | 
COCCOC(=O)C1=C(C)NC(C)=C(C(=O)NCc2ccccc2)C1c1cccc([N+](=O)[O-])c1 (stereo not drawn) [Compound 20a, 2-Methoxyethyl 5-(benzylcarbamoyl)-2,6-dimethyl-4-(3-nitrophenyl)-1,4-dihydropyridine-3-carboxylate] | the same as or more effect of cilnidipine | no Ca2+ antagonism |  | 
COCCOC(=O)c1c(C)nc(C)c2c(=O)n(Cc3ccccc3)c3ccccc3c12 [Compound 10b, 2-Methoxyethyl 6-benzyl-2,4-dimethyl-5-oxo-5,6-dihydrobenzo[c][2,7]naphthyridine-1-carboxylate] | the same as or more effect of cilnidipine |  |  | 
COCCOC(=O)c1c(C)nc(C)c2c(=O)n(-c3cccc(OC)c3)c3ccccc3c12 [Compound 17a, 2-Methoxyethyl 6-(3-methoxyphenyl)-2,4-dimethyl-5-oxo-5,6-dihydrobenzo[c][2,7]naphthyridine-1-carboxylate] | the same as or more effect of cilnidipine | no Ca2+ antagonism |  | 
COCCOC(=O)c1c(C)nc(C)c(C(=O)NCCCc2ccncc2)c1-c1ccccc1[N+](=O)[O-] [Compound 4f, 2-Methoxyethyl 2,6-dimethyl-4-(2-nitrophenyl)-5-((3-(pyridin-4-yl)propyl)carbamoyl)nicotinate] | the same as or more effect of cilnidipine | no Ca2+ antagonism | suppressive effect on aging that is the same as cilnidipine | 
COCCOC(=O)C1=C(C)NC(C)=C(C(=O)OCCC#N)C1c1cccc([N+](=O)[O-])c1 (stereo not drawn) [Compound 18, 3-(2-cyanoethyl) 5-(2-methoxyethyl) 2,6-dimethyl-4-(3-nitrophenyl)-1,4-dihydropyridine-3,5-dicarboxylate] | the same as or more effect of cilnidipine | no Ca2+ antagonism |  | 
COCCOC(=O)c1c(C)nc(C)c(C(=O)Nc2cccc(C(=O)O)c2)c1-c1ccccc1 [Compound 25, 3-(5-((2-methoxyethoxy)carbonyl)-2,6-dimethyl-4-phenylnicotinamido)benzoic acid] | the same as or more effect of cilnidipine |  |  | 
COCCOC(=O)C1=C(C)NC(C)=C(C(=O)Nc2cccc(C(=O)O)c2)C1c1ccccc1 (stereo not drawn) [Compound 31, 3-(5-((2-methoxyethoxy)carbonyl)-2,6-dimethyl-4-phenyl-1,4-dihydropyridine-3-carboxamido)benzoic acid] | the same as or more effect of cilnidipine |  |  | 
COCCOC(=O)c1c(C)nc(C)c2c(=O)n(-c3cccc(C(=O)OC(C)(C)C)c3)c3ccccc3c12 [Compound 17c, 2-Methoxyethyl 6-(3-(tert-butoxycarbonyl)phenyl)-2,4-dimethyl-5-oxo-5,6-dihydrobenzo[c][2,7]naphthyridine-1-carboxylate] | the same as or more effect of cilnidipine |  |  | 
COCCOC(=O)C1=C(C)NC(C)=C(C(=O)O)C1c1ccccc1[N+](=O)[O-] (stereo not drawn) [Compound 2, 5-((2-methoxyethoxy)carbonyl)-2,6-dimethyl-4-(2-nitrophenyl)-1,4-dihydropyridine-3-carboxylic acid] | the same as or more effect of cilnidipine | no Ca2+ antagonism | suppressive effect on aging that is the same as cilnidipine | 
Cc1nc(C)c2c(=O)[nH]c3ccccc3c2c1C(=O)O [Compound 14, 2,4-dimethyl-5-oxo-5,6-dihydrobenzo[c][2,7]naphthyridine-1-carboxylic acid] | the same as or more effect of cilnidipine | no Ca2+ antagonism |  | 
COCCOC(=O)C1=C(C)NC(C)=C(C(=O)Nc2cccc(C(=O)OCCC#N)c2)C1c1ccccc1 (stereo not drawn) [Compound 30, 2-Methoxyethyl 5-((3-((2-cyanoethoxy)carbonyl)phenyl)carbamoyl)-2,6-dimethyl-4-phenyl-1,4-dihydropyridine-3-carboxylate] | the same as or more effect of cilnidipine |  |  | 
COCCOC(=O)c1c(C)nc(C)c(C(=O)Nc2cccc(C(=O)OC)c2)c1-c1ccccc1 [Compound 26, 2-Methoxyethoxy 5-((3-(methoxycarbonyl)phenyl)carbamoyl)-2,6-dimethyl-4-phenylnicotinate] | the same as or more effect of cilnidipine |  |  | 
COCCOC(=O)c1c(C)nc(C)c2c(=O)n(C)c3ccccc3c12 [Compound 10a, 2-Methoxyethyl 2,4,6-trimethyl-5-oxo-5,6-dihydrobenzo[c][2,7]naphthyridine-1-carboxylate] | the same as or more effect of cilnidipine |  |  | 
COCCOC(=O)C1=C(C)NC(C)=C(C(=O)OC/C=C/c2ccccc2)C1c1cccc([N+](=O)[O-])c1 (stereo not drawn) [Cilnidipine] |  |  |  | inhibit formation of the Drp1-filamin complex
COCCOC(=O)C1=C(C)NC(C)=C(C(=O)Nc2ccc(OC)cc2)C1c1ccccc1 (stereo not drawn) [Compound 16b, 2-Methoxyethyl 5-((4-methoxyphenyl)carbamoyl)-2,6-dimethyl-4-phenyl-1,4-dihydropyridine-3-carboxylate] | the same as or more effect of cilnidipine | no Ca2+ antagonism |  | 
